Results as given in patent US20100167275A1, “Potassium channel mutants of the yeast Saccharomyces cerevisiae and their use for screening eukaryotic potassium channels” (sanofi-aventis Deutschland GmbH, priority 2000, published 2010).
Where “and” joins values, the source holds several entries; their conditions need not be identical. Identical values can stand only once. Like-named read-outs stand apart in the source and are kept apart here.

Columns and labels:
[1] = tested on: Saccharomyces cerevisiae wild-type strain; format: cell-based
Method: (§1) FIG. 9: Growth of the Saccharomyces cerevisiae wild-type strain in DPM-HIS/-TRP 5 mM KCl medium in 96-well ELISA plates in the presence of 0.5 mM CsCl. The various inhibitors were employed at a final concentration of in each case 30 μM. To measure the cell density, a commercially available LacZ reporter system pYX232 by Ingenius (cat. No. MBV-032-10) was transformed into the yeast strains to be studied. Expression of the LacZ reporter gene was under the control of the constitutive Saccharomyces cerevisiae promotor TPI for the triose phosphate isomerase gene. The LacZ enzyme activity was measured via detecting the luminescence after 24 hours' growth (density of the starter culture: 0.01 OD620) using a commercially available assay system by TROPIX.
The values correspond to the average of in each case 4 measurements±SD. The two different assays were carried out independently of each other on two different days.
(§2) All substances, dissolved in DMSO, were employed in a final concentration of 30 μM. As a control, cells were measured with the same final concentration of 0.5% DMSO without substance, without DMSO addition or without substance.

[2] = tested on: Saccharomyces cerevisiae wild-type strain; experiment: Growth of wild-type strain in DPM medium with 5 mM or 80 mM KCl, OD 620 nm; format: cell-based; details: 30 μM; for toxic effect on yeast cells (Saccharomyces cerevisiae): growth medium containing 80 mM KCl; for growth OD 620 nm, 5 mM KCl, measurement 1 / growth OD 620 nm, 5 mM KCl, measurement 2 / growth OD 620 nm, 5 mM KCl, measurement 3 / growth OD 620 nm, 5 mM KCl, measurement 4 / 5 mM KCl (average growth, OD 620 nm) / growth OD 620 nm, 80 mM KCl, measurement 1 / growth OD 620 nm, 80 mM KCl, measurement 2 / growth OD 620 nm, 80 mM KCl, measurement 3 / growth OD 620 nm, 80 mM KCl, measurement 4 / 80 mM KCl (average growth, OD 620 nm): wild-type cells, DPM, 24 hours growth, starting culture 0.01 OD; for 5 mM KCl (average growth, OD 620 nm) / 80 mM KCl (average growth, OD 620 nm): average of 4
Source text: However, the present results could not exclude that the inhibitory effect found for these substances can possibly also be attributed to an inhibition of other proteins which are essential for the growth of yeast cells. […]

[3] = molecular target: human potassium channel HERG1 (Homo sapiens, UniProt Q12809)
Chain of human potassium channel HERG1 (Q12809 whole entry): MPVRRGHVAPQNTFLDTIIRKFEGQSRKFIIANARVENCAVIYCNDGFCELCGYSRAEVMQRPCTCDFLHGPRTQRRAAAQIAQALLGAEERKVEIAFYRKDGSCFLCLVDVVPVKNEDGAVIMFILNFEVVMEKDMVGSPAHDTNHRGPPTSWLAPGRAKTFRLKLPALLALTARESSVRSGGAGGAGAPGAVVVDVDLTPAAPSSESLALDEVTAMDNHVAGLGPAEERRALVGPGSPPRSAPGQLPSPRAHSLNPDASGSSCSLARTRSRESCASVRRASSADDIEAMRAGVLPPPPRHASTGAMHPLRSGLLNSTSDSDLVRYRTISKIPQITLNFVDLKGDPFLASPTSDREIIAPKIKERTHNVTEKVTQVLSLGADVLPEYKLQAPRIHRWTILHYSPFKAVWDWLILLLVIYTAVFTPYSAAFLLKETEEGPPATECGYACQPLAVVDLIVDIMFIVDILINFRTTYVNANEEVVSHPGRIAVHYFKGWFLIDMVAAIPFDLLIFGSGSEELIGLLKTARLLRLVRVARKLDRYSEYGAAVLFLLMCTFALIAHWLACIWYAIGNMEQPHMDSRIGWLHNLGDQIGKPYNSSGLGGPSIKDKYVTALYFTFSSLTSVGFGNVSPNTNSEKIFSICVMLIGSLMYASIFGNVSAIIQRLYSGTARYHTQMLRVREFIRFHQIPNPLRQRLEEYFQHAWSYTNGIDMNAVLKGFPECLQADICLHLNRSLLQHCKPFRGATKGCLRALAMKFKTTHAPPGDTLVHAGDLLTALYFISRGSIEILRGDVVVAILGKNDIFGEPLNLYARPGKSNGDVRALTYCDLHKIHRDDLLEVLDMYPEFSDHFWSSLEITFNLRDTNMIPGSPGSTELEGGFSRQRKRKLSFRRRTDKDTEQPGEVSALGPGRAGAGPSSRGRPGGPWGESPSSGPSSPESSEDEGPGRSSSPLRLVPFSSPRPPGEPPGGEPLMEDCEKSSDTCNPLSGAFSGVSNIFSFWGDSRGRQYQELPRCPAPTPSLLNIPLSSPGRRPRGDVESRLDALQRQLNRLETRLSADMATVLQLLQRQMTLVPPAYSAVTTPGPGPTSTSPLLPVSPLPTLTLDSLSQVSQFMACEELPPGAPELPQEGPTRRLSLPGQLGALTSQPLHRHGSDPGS
Method: FIG. 7: Expression of the human potassium channel HERG1 in the triple mutant Δtrk1Δtrk2Δtok1 in DPM-HIS/-TRP 5 mM KCl medium in 96-well ELISA plates in the presence of 0.5 mM CsCl as activator.
as §1, with “The” for “FIG. 9: Growth of the Saccharomyces cerevisiae wild-type strain in DPM-HIS/-TRP 5 mM KCl medium in 96-well ELISA plates in the presence of 0.5 mM CsCl. The”, “TROPIX. The values correspond to the average of in each case 4 measurements±SD. The two different assays were carried out independently of each other on two different days.” for “TROPIX.”
FIG. 8: Expression of the human potassium channel HERG1 in the triple mutant Δtrk1Δtrk2Δtok1 in DPM-HIS 5 mM KCl medium in 96-well ELISA plates in the presence of 0.5 mM CsCl as activator.
The various inhibitors were employed at a final concentration of in each case 30 μM. The cell density was measured after 38 hours' growth (density of the starter culture: 0.03 OD620) via determination of the optical density at a wavelength of 620 nm. The values corresponded to the average of in each case 4 measurements±SD.
All growth assays in the triple mutant Δtrk1Δtrk2Δtok1 were carried out in growth medium DPM (defined potassium medium) at the pH and the potassium concentration stated in each case.
as §2

[4] = 30 μM, wild-type cells, DPM -HIS/-TRP, 0.5 mM CsCl, 24 hours growth, TROPIX kit, ASSAY 1
[5] = 30 μM, wild-type cells, DPM -HIS/-TRP, 0.5 mM CsCl, 24 hours growth, TROPIX kit, ASSAY 1, mean of 4
[6] = 30 μM, wild-type cells, DPM -HIS/-TRP, 0.5 mM CsCl, 24 hours growth, TROPIX kit, ASSAY 2
[7] = 30 μM, wild-type cells, DPM -HIS/-TRP, 0.5 mM CsCl, 24 hours growth, TROPIX kit, ASSAY 2, mean of 4

Structure (SMILES) | Exp. 1 (LacZ luminescence), ASSAY 1 [1, 4] | Exp. 2 (LacZ luminescence), ASSAY 1 [1, 4] | Exp. 3 (LacZ luminescence), ASSAY 1 [1, 4] | Exp. 4 (LacZ luminescence), ASSAY 1 [1, 4] | Mean growth (LacZ luminescence), ASSAY 1 [1, 5] | Exp. 1 (LacZ luminescence), ASSAY 2 [1, 6] | Exp. 2 (LacZ luminescence), ASSAY 2 [1, 6] | Exp. 3 (LacZ luminescence), ASSAY 2 [1, 6] | Exp. 4 (LacZ luminescence), ASSAY 2 [1, 6] | Mean growth (LacZ luminescence), ASSAY 2 [1, 7] | toxic effect on yeast cells (Saccharomyces cerevisiae) ([2]; FIG. 10) | growth OD 620 nm, 5 mM KCl, measurement 1 [2] | growth OD 620 nm, 5 mM KCl, measurement 2 [2] | growth OD 620 nm, 5 mM KCl, measurement 3 [2] | growth OD 620 nm, 5 mM KCl, measurement 4 [2] | 5 mM KCl (average growth, OD 620 nm) [2] | growth OD 620 nm, 80 mM KCl, measurement 1 ([2]; 80 mM KCl) | growth OD 620 nm, 80 mM KCl, measurement 2 ([2]; 80 mM KCl) | growth OD 620 nm, 80 mM KCl, measurement 3 ([2]; 80 mM KCl) | growth OD 620 nm, 80 mM KCl, measurement 4 ([2]; 80 mM KCl) | other results
CN(C)CCOC(c1ccccc1)c1ccccc1 [Diphenhydramine] | 2806 | 3161 | 4178 | 4884 | 3757.25 | 3468 | 2980 | 3062 | 3581 | 3267.75 | – | – | – | – | – | – | – | – | – | – | –
CCOC(=O)N1CCC(=C2c3ccc(Cl)cc3CCc3cccnc32)CC1 [Loratadine, ethyl 4-(8-chloro-5,6-dihydro-11H-benzo[5,6]cyclohepta[1,2-b]pyridin-11-ylidene)-1-piperidinecarboxytate] | 4905 | 5141 | 1857 | 3266 | 3792.25 | 3553 | 1965 | 3590 | 2478 | 2896.5 | – | – | – | – | – | – | – | – | – | – | –
O=c1[nH]c2ccccc2n1C1CCN(CCCC(c2ccc(F)cc2)c2ccc(F)cc2)CC1 [Pimozide, 1-(4,4-bis(P-fluorophenyl)butyl)-4-(2-oxo-1-benzimidazolinyl)-piperidine] | 357.4 | 747.9 | 804.6 | 585.4 | 623.825 | 905 | 2176 | 496.5 | 573.4 | 1037.725 | no generally toxic effect | 0.904 | 0.823 | 0.305 | 0.614 | 0.6615 | 3.673 | 3.505 | 3.46 and 3.48 | 3.441 | 80 mM KCl (average growth, OD 620 nm) ([2]; 80 mM KCl): 3.5 and 3.52; Exp. 1 (growth, OD620 nm) [3]: 0.004; Exp. 2 (growth, OD620 nm) [3]: 0.004; Exp. 3 (growth, OD620 nm) [3]: 0.005; Exp. 4 (growth, OD620 nm) [3]: 0.005; Mean growth (OD620 nm) [3]: 0.0045; complementation of the growth deficiency of the triple mutant by human HERG1 in the presence of the substance [3]: can no longer complement
O=C1NCCN1CCN1CCC(c2cn(-c3ccc(F)cc3)c3ccc(Cl)cc23)CC1 [Sertindole, 1-(2-[4-[5-chloro-1-(4-fluorophenyl)-1H-indol-3-yl]-1-piperidinyl]ethyl)-2-imidazolidinone] | 4165 | 2099 | 4588 | 3069 | 3480.25 | 3992 | 3076 | 3972 | 2782 | 3455.5 | – | – | – | – | – | – | – | – | – | – | specificity of inhibition of the human HERG1 channel (comparison with wild-type strain) [1]: specific inhibitors
CC(C)(C)c1ccc(C(O)CCCN2CCC(C(O)(c3ccccc3)c3ccccc3)CC2)cc1 (stereo not drawn) [Terfenadine, α-(4-tert-butylphenyl)-4-(α-hydroxy-αphenylbenzyl)-1-piperidinebutanol] | – | – | – | – | – | – | – | – | – | – | – | – | – | – | – | – | – | – | – | – | Exp. 1 (LacZ luminescence), ASSAY 1 [1]: 4497; Exp. 1 (LacZ luminescence), ASSAY 2 [1]: 3439; Exp. 2 (LacZ luminescence), ASSAY 1 [1]: 4481; Exp. 2 (LacZ luminescence), ASSAY 2 [1]: 3795; Exp. 3 (LacZ luminescence), ASSAY 1 [1]: 5058; Exp. 3 (LacZ luminescence), ASSAY 2 [1]: 3698; Exp. 4 (LacZ luminescence), ASSAY 1 [1]: 5381; Exp. 4 (LacZ luminescence), ASSAY 2 [1]: 3388; Mean growth (LacZ luminescence), ASSAY 1 [1]: 4854.25; Mean growth (LacZ luminescence), ASSAY 2 [1]: 3580
O=C1Cc2cc(CCN3CCN(c4nsc5ccccc45)CC3)c(Cl)cc2N1 [Ziprasidone, 5-(2-[4-(1,2-benzisothiazol-3-yl)piperazino]-ethyl)-6-chloro-1,3-dihydro-2H-indol-2-one] | 55.32 | 70.29 | 70.3 | 77.18 | 68.2725 | 62.52 | 44.3 | 49.71 | 51.87 | 52.1 | has a toxic effect | 0.943 | 0.877 | 0.675 | 0.701 | 0.799 | 0.836 | 0.681 | 0.717 | 0.606 | specificity of inhibition of the human HERG1 channel (comparison with wild-type strain) [1]: rather unspecific inhibitors; effect on growth of yeast cells at higher potassium concentrations ([2]; 80 mM KCl, FIG. 10): inhibits the growth; 80 mM KCl (average growth, OD 620 nm) ([2]; 80 mM KCl): 0.7 and 0.71; Exp. 1 (growth, OD620 nm) [3]: 0.006; Exp. 2 (growth, OD620 nm) [3]: 0.01; Exp. 3 (growth, OD620 nm) [3]: 0.012; Exp. 4 (growth, OD620 nm) [3]: 0.015; Mean growth (OD620 nm) [3]: 0.01075; complementation of the growth deficiency of the triple mutant by human HERG1 in the presence of the substance [3]: can no longer complement
